Literature values as cited in US6342486B1, “Polymer glucan ether derivatives, their manufacturing as well as their use” (Mibelle AG Cosmetics, priority 1996, dated 2002).

Details: isolated glucan from yeast cells

solubility in aqueous systems: extremely low solubility
Substance: 1,3-beta-polyglucose [glucan]
